# Data: ChEMBL document CHEMBL3421538, “Structure-activity relationships and molecular studies of novel arylpiperazinylalkyl purine-2,4-diones and purine-2,4,8-triones with antidepressant and anxiolytic-like activity” (Eur J Med Chem, 2015)
# Target: 5-hydroxytryptamine receptor 7 (Homo sapiens, UniProt P34969)
# Assay: Displacement of [3H]LSD from human recombinant 5-HT7 receptor expressed in CHOK1 cells incubated for 60 mins by microbeta plate reader based method
# Assay type: cell-based, CHO-K1
# Chain of 5-hydroxytryptamine receptor 7 (P34969 whole entry): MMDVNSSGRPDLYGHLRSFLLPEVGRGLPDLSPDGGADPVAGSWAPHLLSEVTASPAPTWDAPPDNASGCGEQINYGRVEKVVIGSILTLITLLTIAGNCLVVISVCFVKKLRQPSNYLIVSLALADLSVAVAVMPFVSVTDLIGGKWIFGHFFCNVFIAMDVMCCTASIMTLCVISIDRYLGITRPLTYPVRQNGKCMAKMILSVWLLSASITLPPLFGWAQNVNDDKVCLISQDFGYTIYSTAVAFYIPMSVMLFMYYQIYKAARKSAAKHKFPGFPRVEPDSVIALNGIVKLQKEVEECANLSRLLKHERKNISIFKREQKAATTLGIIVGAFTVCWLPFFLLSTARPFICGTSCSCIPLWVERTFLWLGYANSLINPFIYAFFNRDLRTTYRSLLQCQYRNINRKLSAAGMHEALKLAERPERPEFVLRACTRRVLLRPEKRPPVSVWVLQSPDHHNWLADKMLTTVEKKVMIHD
row,Compound,Ki
1,Cn1c(=O)c2c(nc3n(CCCCCN4CCN(c5ccc(Cl)cc5)CC4)ccn23)n(C)c1=O,3640 nM
2,Cn1c(=O)c2c(nc3n(CCCCN4CCN(c5ccccc5O)CC4)ccn23)n(C)c1=O,1360 nM
3,Cc1cn2c3c(=O)n(C)c(=O)n(C)c3nc2n1CCCCCN1CCN(c2ccc(Cl)cc2)CC1,691 nM
4,Cn1c(=O)c2c(nc3n(CCCCCN4CCN(c5ccc(Cl)cc5)CC4)c(=O)ccn23)n(C)c1=O,> 1000 nM
5,Cc1cn2c3c(=O)n(C)c(=O)n(C)c3nc2n1CCCCN1CCN(c2ccccc2O)CC1,510 nM
6,Cn1c(=O)c2c(nc3n(CCCCCN4CCN(c5ccccc5O)CC4)c(=O)ccn23)n(C)c1=O,473 nM

# Second part, the compound after the results:
row,Ki,Compound
1,61 nM,Cn1c(=O)c2c(nc3n(CCCCN4CCN(c5ccc(Cl)cc5)CC4)c(=O)ccn23)n(C)c1=O
2,124 nM,Cc1cn2c3c(=O)n(C)c(=O)n(C)c3nc2n1CCCCCN1CCN(c2ccccc2O)CC1
3,361 nM,Cc1cn2c3c(=O)n(C)c(=O)n(C)c3nc2n1CCCCN1CCN(c2ccc(Cl)cc2)CC1
4,230 nM,Cn1c(=O)c2c(nc3n(CCCCCN4CCN(c5ccccc5O)CC4)ccn23)n(C)c1=O
5,37 nM,Cn1c(=O)c2c(nc3n(CCCCN4CCN(c5ccc(Cl)cc5)CC4)c(-c4ccccc4)cn23)n(C)c1=O

# Target: D(3) dopamine receptor (Homo sapiens) (UniProt P35462)
# Sequence (P35462 whole entry): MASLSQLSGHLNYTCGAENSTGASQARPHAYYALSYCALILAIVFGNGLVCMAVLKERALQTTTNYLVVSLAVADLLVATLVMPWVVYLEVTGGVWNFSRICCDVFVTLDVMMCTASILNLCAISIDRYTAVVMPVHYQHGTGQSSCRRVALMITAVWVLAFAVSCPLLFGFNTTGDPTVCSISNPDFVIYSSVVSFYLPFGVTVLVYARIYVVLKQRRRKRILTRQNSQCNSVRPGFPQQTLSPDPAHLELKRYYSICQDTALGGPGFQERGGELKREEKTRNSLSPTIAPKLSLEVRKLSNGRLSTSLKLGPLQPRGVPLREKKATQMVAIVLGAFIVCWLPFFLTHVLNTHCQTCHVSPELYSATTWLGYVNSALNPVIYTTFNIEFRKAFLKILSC
# Assay: Displacement of [3H]N-methylspiperone from dopamine D3 receptor (unknown origin) assessed as total radioligand binding at 1 uM incubated for 60 mins by microbeta plate reader based method
row,Compound,Activity
1,Cc1cccc(N2CCN(CCCCn3ccn4c5c(=O)n(C)c(=O)n(C)c5nc34)CC2)c1C,13%
2,Cn1c(=O)c2c(nc3n(CCCCN4CCN(c5ccccc5O)CC4)ccn23)n(C)c1=O,69%
3,Cn1c(=O)c2c(nc3n(CCCCCN4CCN(c5ccc(Cl)cc5)CC4)c(=O)ccn23)n(C)c1=O,92%
4,Cc1cn2c3c(=O)n(C)c(=O)n(C)c3nc2n1CCCCN1CCN(c2ccccc2O)CC1,67%
5,Cn1c(=O)c2c(nc3n(CCCCCN4CCN(c5ccccc5O)CC4)c(=O)ccn23)n(C)c1=O,46%

# Now from value to compound:
row,Activity,Compound
1,52%,Cn1c(=O)c2c(nc3n(CCCCN4CCN(c5ccc(Cl)cc5)CC4)c(=O)ccn23)n(C)c1=O
2,71%,Cc1cn2c3c(=O)n(C)c(=O)n(C)c3nc2n1CCCCCN1CCN(c2ccccc2O)CC1
3,3%,Cn1c(=O)c2c(nc3n(CCCCCN4CCN(c5ccccc5O)CC4)ccn23)n(C)c1=O

# Target: D(3) dopamine receptor (Homo sapiens) (UniProt P35462)
# Assay: Displacement of [3H]N-methylspiperone from dopamine D3 receptor (unknown origin) assessed as total radioligand binding at 1.66 x 10^-7 M incubated for 60 mins by microbeta plate reader based method
row,Compound,Activity
1,Cc1cccc(N2CCN(CCCCn3ccn4c5c(=O)n(C)c(=O)n(C)c5nc34)CC2)c1C,47%
2,Cn1c(=O)c2c(nc3n(CCCCN4CCN(c5ccccc5O)CC4)ccn23)n(C)c1=O,67%
3,Cn1c(=O)c2c(nc3n(CCCCCN4CCN(c5ccc(Cl)cc5)CC4)c(=O)ccn23)n(C)c1=O,99%
4,Cc1cn2c3c(=O)n(C)c(=O)n(C)c3nc2n1CCCCN1CCN(c2ccccc2O)CC1,86%
5,Cn1c(=O)c2c(nc3n(CCCCCN4CCN(c5ccccc5O)CC4)c(=O)ccn23)n(C)c1=O,67%

# Other lines, results leading:
row,Activity,Compound
1,96%,Cn1c(=O)c2c(nc3n(CCCCN4CCN(c5ccc(Cl)cc5)CC4)c(=O)ccn23)n(C)c1=O
2,85%,Cc1cn2c3c(=O)n(C)c(=O)n(C)c3nc2n1CCCCCN1CCN(c2ccccc2O)CC1
3,69%,Cn1c(=O)c2c(nc3n(CCCCCN4CCN(c5ccccc5O)CC4)ccn23)n(C)c1=O

# Target: T1, 5-hydroxytryptamine receptor 6 (Homo sapiens, UniProt P50406)
# T1 sequence (P50406 whole entry): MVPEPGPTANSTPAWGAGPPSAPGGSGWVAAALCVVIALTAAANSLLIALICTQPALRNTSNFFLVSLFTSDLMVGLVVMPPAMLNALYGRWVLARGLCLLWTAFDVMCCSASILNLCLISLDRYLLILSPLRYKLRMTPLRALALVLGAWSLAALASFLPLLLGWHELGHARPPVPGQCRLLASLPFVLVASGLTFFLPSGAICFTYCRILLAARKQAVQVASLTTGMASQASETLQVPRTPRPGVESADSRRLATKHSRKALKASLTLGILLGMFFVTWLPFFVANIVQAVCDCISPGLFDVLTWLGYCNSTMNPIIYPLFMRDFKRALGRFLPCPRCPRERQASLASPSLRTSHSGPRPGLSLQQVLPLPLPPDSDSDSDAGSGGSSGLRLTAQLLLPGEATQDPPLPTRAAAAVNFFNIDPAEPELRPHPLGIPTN
# Assay: Displacement of [3H]LSD from human recombinant 5-HT6 receptor expressed in HEK293 cells assessed as total radioligand binding at 1 uM incubated for 60 mins by microbeta plate reader based method
# Assay type: cell-based
row,Compound,Activity
1,Cc1cccc(N2CCN(CCCCn3ccn4c5c(=O)n(C)c(=O)n(C)c5nc34)CC2)c1C,62%
2,Cn1c(=O)c2c(nc3n(CCCCN4CCN(c5ccccc5O)CC4)ccn23)n(C)c1=O,90%
3,Cc1cn2c3c(=O)n(C)c(=O)n(C)c3nc2n1CCCCN1CCN(c2ccccc2O)CC1,90%

# More lines, now with the values ahead:
row,Activity,Compound
1,77%,Cc1cn2c3c(=O)n(C)c(=O)n(C)c3nc2n1CCCCCN1CCN(c2ccccc2O)CC1
2,67%,Cn1c(=O)c2c(nc3n(CCCCCN4CCN(c5ccccc5O)CC4)ccn23)n(C)c1=O

# Target: T2, 5-hydroxytryptamine receptor 1A (Rattus norvegicus) (UniProt P19327)
# T2 sequence (whole entry): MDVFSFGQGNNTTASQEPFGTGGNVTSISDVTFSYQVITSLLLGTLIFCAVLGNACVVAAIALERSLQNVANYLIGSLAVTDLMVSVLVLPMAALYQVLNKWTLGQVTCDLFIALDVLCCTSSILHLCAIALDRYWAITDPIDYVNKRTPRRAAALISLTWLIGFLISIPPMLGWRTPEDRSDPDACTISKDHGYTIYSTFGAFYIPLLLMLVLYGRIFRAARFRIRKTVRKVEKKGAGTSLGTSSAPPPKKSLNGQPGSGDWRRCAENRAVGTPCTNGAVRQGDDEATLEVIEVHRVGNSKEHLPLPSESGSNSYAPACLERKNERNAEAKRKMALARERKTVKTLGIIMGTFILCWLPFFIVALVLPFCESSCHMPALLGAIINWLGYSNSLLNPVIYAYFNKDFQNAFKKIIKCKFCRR
# Assay: Displacement of [3H]8-OH-DPAT from rat hippocampus 5-HT1A receptor assessed as total radioligand binding at 1.66 x 10^-7 M incubated for 20 mins by microbeta plate reader based method
row,Compound,Activity
1,Cc1cccc(N2CCN(CCCCn3ccn4c5c(=O)n(C)c(=O)n(C)c5nc34)CC2)c1C,48%
2,Cn1c(=O)c2c(nc3n(CCCCN4CCN(c5ccccc5O)CC4)ccn23)n(C)c1=O,40%
3,Cc1cn2c3c(=O)n(C)c(=O)n(C)c3nc2n1CCCCN1CCN(c2ccccc2O)CC1,44%

# Next, values leading:
row,Activity,Compound
1,52%,Cc1cn2c3c(=O)n(C)c(=O)n(C)c3nc2n1CCCCCN1CCN(c2ccccc2O)CC1
2,57%,Cn1c(=O)c2c(nc3n(CCCCCN4CCN(c5ccccc5O)CC4)ccn23)n(C)c1=O

# Target: T2, 5-hydroxytryptamine receptor 1A (Rattus norvegicus)
# Assay: Displacement of [3H]8-OH-DPAT from rat hippocampus 5-HT1A receptor assessed as total radioligand binding at 1 uM incubated for 20 mins by microbeta plate reader based method
row,Compound,Activity
1,Cc1cccc(N2CCN(CCCCn3ccn4c5c(=O)n(C)c(=O)n(C)c5nc34)CC2)c1C,9%
2,Cn1c(=O)c2c(nc3n(CCCCN4CCN(c5ccccc5O)CC4)ccn23)n(C)c1=O,7%
3,Cc1cn2c3c(=O)n(C)c(=O)n(C)c3nc2n1CCCCN1CCN(c2ccccc2O)CC1,8%

# Next, values leading:
row,Activity,Compound
1,0%,Cc1cn2c3c(=O)n(C)c(=O)n(C)c3nc2n1CCCCCN1CCN(c2ccccc2O)CC1
2,0%,Cn1c(=O)c2c(nc3n(CCCCCN4CCN(c5ccccc5O)CC4)ccn23)n(C)c1=O

# Test system: not listed separately
# Assay: Selectivity index, ratio of Ki for rat hippocampus 5-HT1A receptor to Ki for human recombinant 5-HT7 receptor
row,Compound,Ratio Ki
1,Cn1c(=O)c2c(nc3n(CCCCCN4CCN(c5ccc(Cl)cc5)CC4)ccn23)n(C)c1=O,0.02
2,Cn1c(=O)c2c(nc3n(CCCCN4CCN(c5ccccc5O)CC4)ccn23)n(C)c1=O,0.002
3,Cc1cn2c3c(=O)n(C)c(=O)n(C)c3nc2n1CCCCCN1CCN(c2ccc(Cl)cc2)CC1,0.09
4,Cc1cn2c3c(=O)n(C)c(=O)n(C)c3nc2n1CCCCN1CCN(c2ccccc2O)CC1,0.003

# Continued, values first:
row,Ratio Ki,Compound
1,0.1,Cc1cn2c3c(=O)n(C)c(=O)n(C)c3nc2n1CCCCCN1CCN(c2ccccc2O)CC1
2,0.1,Cc1cn2c3c(=O)n(C)c(=O)n(C)c3nc2n1CCCCN1CCN(c2ccc(Cl)cc2)CC1
3,0.03,Cn1c(=O)c2c(nc3n(CCCCCN4CCN(c5ccccc5O)CC4)ccn23)n(C)c1=O
4,1.2,Cn1c(=O)c2c(nc3n(CCCCN4CCN(c5ccc(Cl)cc5)CC4)c(-c4ccccc4)cn23)n(C)c1=O

# Target: D(2) dopamine receptor (Homo sapiens, UniProt P14416)
# Sequence (P14416 whole entry): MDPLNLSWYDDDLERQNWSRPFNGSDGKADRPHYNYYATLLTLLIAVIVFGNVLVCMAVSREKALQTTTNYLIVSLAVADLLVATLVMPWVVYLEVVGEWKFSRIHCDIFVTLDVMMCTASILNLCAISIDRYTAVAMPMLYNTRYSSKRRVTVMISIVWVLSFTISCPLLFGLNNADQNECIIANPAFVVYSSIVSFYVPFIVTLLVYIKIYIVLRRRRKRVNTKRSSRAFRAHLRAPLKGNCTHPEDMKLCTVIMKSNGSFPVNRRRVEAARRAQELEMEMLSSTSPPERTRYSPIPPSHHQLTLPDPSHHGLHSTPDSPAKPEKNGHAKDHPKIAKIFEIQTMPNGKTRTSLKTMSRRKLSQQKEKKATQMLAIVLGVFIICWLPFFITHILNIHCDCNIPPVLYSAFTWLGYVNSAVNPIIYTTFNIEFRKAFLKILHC
# Assay: Displacement of [3H]N-methylspiperone from human recombinant dopamine D2 receptor expressed in CHOK1 cells incubated for 60 mins by microbeta plate reader based method
# Assay type: cell-based, CHO-K1
row,Compound,Ki
1,Cn1c(=O)c2c(nc3n(CCCCCN4CCN(c5ccc(Cl)cc5)CC4)ccn23)n(C)c1=O,259 nM
2,Cn1c(=O)c2c(nc3n(CCCCN4CCN(c5ccccc5O)CC4)ccn23)n(C)c1=O,700 nM
3,Cc1cn2c3c(=O)n(C)c(=O)n(C)c3nc2n1CCCCCN1CCN(c2ccc(Cl)cc2)CC1,106 nM
4,Cn1c(=O)c2c(nc3n(CCCCCN4CCN(c5ccc(Cl)cc5)CC4)c(=O)ccn23)n(C)c1=O,215 nM
5,Cc1cn2c3c(=O)n(C)c(=O)n(C)c3nc2n1CCCCN1CCN(c2ccccc2O)CC1,430 nM
6,Cn1c(=O)c2c(nc3n(CCCCCN4CCN(c5ccccc5O)CC4)c(=O)ccn23)n(C)c1=O,340 nM

# Further lines, results first:
row,Ki,Compound
1,68 nM,Cn1c(=O)c2c(nc3n(CCCCN4CCN(c5ccc(Cl)cc5)CC4)c(=O)ccn23)n(C)c1=O
2,468 nM,Cc1cn2c3c(=O)n(C)c(=O)n(C)c3nc2n1CCCCCN1CCN(c2ccccc2O)CC1
3,123 nM,Cc1cn2c3c(=O)n(C)c(=O)n(C)c3nc2n1CCCCN1CCN(c2ccc(Cl)cc2)CC1
4,265 nM,Cn1c(=O)c2c(nc3n(CCCCCN4CCN(c5ccccc5O)CC4)ccn23)n(C)c1=O
5,23 nM,Cn1c(=O)c2c(nc3n(CCCCN4CCN(c5ccc(Cl)cc5)CC4)c(-c4ccccc4)cn23)n(C)c1=O

# Target: T1, 5-hydroxytryptamine receptor 6
# Assay: Displacement of [3H]LSD from human recombinant 5-HT6 receptor expressed in HEK293 cells incubated for 60 mins by microbeta plate reader based method
# Assay type: cell-based
row,Compound,Ki
1,Cn1c(=O)c2c(nc3n(CCCCCN4CCN(c5ccc(Cl)cc5)CC4)ccn23)n(C)c1=O,1590 nM
2,Cc1cn2c3c(=O)n(C)c(=O)n(C)c3nc2n1CCCCCN1CCN(c2ccc(Cl)cc2)CC1,837 nM
3,Cn1c(=O)c2c(nc3n(CCCCCN4CCN(c5ccc(Cl)cc5)CC4)c(=O)ccn23)n(C)c1=O,839 nM
4,Cn1c(=O)c2c(nc3n(CCCCCN4CCN(c5ccccc5O)CC4)c(=O)ccn23)n(C)c1=O,> 1000 nM

# The next lines start with the values.
row,Ki,Compound
1,86 nM,Cn1c(=O)c2c(nc3n(CCCCN4CCN(c5ccc(Cl)cc5)CC4)c(=O)ccn23)n(C)c1=O
2,1460 nM,Cc1cn2c3c(=O)n(C)c(=O)n(C)c3nc2n1CCCCN1CCN(c2ccc(Cl)cc2)CC1
3,447 nM,Cn1c(=O)c2c(nc3n(CCCCN4CCN(c5ccc(Cl)cc5)CC4)c(-c4ccccc4)cn23)n(C)c1=O

# Target: T1, 5-hydroxytryptamine receptor 6
# Assay: Displacement of [3H]LSD from human recombinant 5-HT6 receptor expressed in HEK293 cells assessed as total radioligand binding at 1.66 x 10^-7 M incubated for 60 mins by microbeta plate reader based method
# Assay type: cell-based
row,Compound,Activity
1,Cc1cccc(N2CCN(CCCCn3ccn4c5c(=O)n(C)c(=O)n(C)c5nc34)CC2)c1C,91%
2,Cn1c(=O)c2c(nc3n(CCCCN4CCN(c5ccccc5O)CC4)ccn23)n(C)c1=O,99%
3,Cc1cn2c3c(=O)n(C)c(=O)n(C)c3nc2n1CCCCN1CCN(c2ccccc2O)CC1,90%

# The next lines start with the values.
row,Activity,Compound
1,84%,Cc1cn2c3c(=O)n(C)c(=O)n(C)c3nc2n1CCCCCN1CCN(c2ccccc2O)CC1
2,76%,Cn1c(=O)c2c(nc3n(CCCCCN4CCN(c5ccccc5O)CC4)ccn23)n(C)c1=O

# Target: T3, 5-hydroxytryptamine receptor 1A (Rattus norvegicus, UniProt P19327)
# T3 sequence (P19327 whole entry): T2 sequence (whole entry)
# Assay: Displacement of [3H]8-OH-DPAT from rat hippocampus 5-HT1A receptor incubated for 20 mins by microbeta plate reader based method
row,Compound,Ki
1,Cn1c(=O)c2c(nc3n(CCCCCN4CCN(c5ccc(Cl)cc5)CC4)ccn23)n(C)c1=O,73 nM
2,Cn1c(=O)c2c(nc3n(CCCCN4CCN(c5ccccc5O)CC4)ccn23)n(C)c1=O,2 nM
3,Cc1cn2c3c(=O)n(C)c(=O)n(C)c3nc2n1CCCCCN1CCN(c2ccc(Cl)cc2)CC1,62 nM
4,Cn1c(=O)c2c(nc3n(CCCCCN4CCN(c5ccc(Cl)cc5)CC4)c(=O)ccn23)n(C)c1=O,80 nM
5,Cc1cn2c3c(=O)n(C)c(=O)n(C)c3nc2n1CCCCN1CCN(c2ccccc2O)CC1,2 nM
6,Cn1c(=O)c2c(nc3n(CCCCCN4CCN(c5ccccc5O)CC4)c(=O)ccn23)n(C)c1=O,2 nM

# Second part, the compound after the results:
row,Ki,Compound
1,58 nM,Cn1c(=O)c2c(nc3n(CCCCN4CCN(c5ccc(Cl)cc5)CC4)c(=O)ccn23)n(C)c1=O
2,12 nM,Cc1cn2c3c(=O)n(C)c(=O)n(C)c3nc2n1CCCCCN1CCN(c2ccccc2O)CC1
3,38 nM,Cc1cn2c3c(=O)n(C)c(=O)n(C)c3nc2n1CCCCN1CCN(c2ccc(Cl)cc2)CC1
4,7 nM,Cn1c(=O)c2c(nc3n(CCCCCN4CCN(c5ccccc5O)CC4)ccn23)n(C)c1=O
5,46 nM,Cn1c(=O)c2c(nc3n(CCCCN4CCN(c5ccc(Cl)cc5)CC4)c(-c4ccccc4)cn23)n(C)c1=O
